Measurements as given in patent US20240253033A1, “MICROFLUIDIC DETECTION SYSTEM WITH ADJUSTABLE FLOW CONTROL” (priority 2022, published 2024).

Legend:
A. baumannii [1] = assay: QolorAST minimum inhibitory concentration (MIC) test; format: cell-based, Acinetobacter baumannii
Protocol: (§1) Acinetobacter baumannii, Enterococcus faecalis, Enterococcus faecium, Streptococcus agalactiae, Enterobacter cloacae, Klebsiella pneumoniae, Streptococcus pneumoniae, E coli MG1655, and E coli Trimethoprim resistant were streaked on LB miller agar overnight at 37° C. and resuspended in water aliquot. Next, the bacterial concentration was determined using optical density technique. Subsequently, aliquots of different concentrations were prepared for the antibiotic susceptibility testing experiments in CamHB growth media.
(§2) 5×10^5 CFU ml^−1 Oxacillin-resistant S. aureus aliquots were prepared using resazurin/oxacillin solution using different concentrations of oxacillin antibiotic (16 μg/mL, 32 μg/mL, and 64 μg/mL). 5×10^5 CFU ml^−1 Cipro.
(§3) A minimum inhibitory concentration (MIC) was performed to study the QolorAST broad applicability in detecting bacterial resistance profiles and ensuring timely and efficient antimicrobial theraby. […] The antibiotics cover major bacterial inhibition mechanisms as inhibition of protein synthesis, cell wall synthesis, and/or DNA synthesis.
(§4) QolorAST exploited two methodologies: Manual MIC (MA-MIC) and support vector machine MIC (SVM-MIC). […] The SVM-MIC was carried out with a rbf kernel that was optimized and trained to predict the color change of the preclinical images using our library of bacteria images collected under different conditions including images where color is changed, color transitioning, and no color change. The SVM successfully classified the condition's bacteria-antibiotic in the concentration range studied.

E. cloacae [2] = assay: as above; format: cell-based, Enterobacter cloacae
Protocol: as §1, §2, §3, §4

S. pneumonia [3] = assay: as above; format: cell-based, Streptococcus pneumoniae
Protocol: as §1, §2, §3, §4

K. pneumonia [4] = assay: as above; format: cell-based, Klebsiella pneumoniae
Protocol: as §1, §2, §3, §4

S. agalactiae [5] = assay: as above; format: cell-based, Streptococcus agalactiae
Protocol: as §1, §2, §3, §4

A. baumannii [6] = assay: Conventional broth microdilution (BMD) MIC; format: cell-based, Acinetobacter baumannii
Protocol: (§5) For clinical MIC, bacteria were streaked on LB agar overnight and resuspended in a water aliquot. The aliquot was measured, and the bacteria concentration was adjusted to of 10^6 CFU ml^−1 in LB media. A 96 well plate with an antibiotic gradient from 128 μg/ml to 0.125 μg/ml in a 2-fold concentration dilution step was prepared with a positive control with no antibiotics. Next, the bacteria were introduced to each well of the 96 well plate for a final bacteria concentration of 5×10^5 CFU ml^−1. The well plates were cultured overnight the minimum inhibitory concentration was determined as the antibiotic concentration that didn't show any signs of bacterial growth.

E. cloacae [7] = assay: Conventional broth microdilution (BMD) MIC; format: cell-based, Enterobacter cloacae
Protocol: as §5

S. pneumonia [8] = assay: Conventional broth microdilution (BMD) MIC; format: cell-based, Streptococcus pneumoniae
Protocol: as §5

K. pneumonia [9] = assay: Conventional broth microdilution (BMD) MIC; format: cell-based, Klebsiella pneumoniae
Protocol: as §5

S. agalactiae [10] = assay: Conventional broth microdilution (BMD) MIC; format: cell-based, Streptococcus agalactiae
Protocol: as §5

MRSA [11] = assay: QolorAST minimum inhibitory concentration (MIC) test; format: cell-based, Staphylococcus aureus
Protocol: Ampicillin-resistant E. coli strain mm294 was cultured overnight at 37° C. in Luria broth (LB) media supplemented with 100 μg/mL Ampicillin. […] Next, the bacterial concentration was determined by optical density technique using a Spectronic 21D spectrophotometer. Subsequently, aliquots of different concentrations were prepared for the antibiotic susceptibility testing experiments in LB media. Biotyper spectra (MALDI Bruker).
as §2, §3, §4

MRSA [12] = assay: Phenotypic QolorAST rapid AST (resazurin reduction); format: cell-based, Staphylococcus aureus; conditions: 10^5 cfu/mL MRSA, antibiotic concentrations, 0-60 min
Protocol: (§6) Resistant E. coli, Oxacillin-resistant S. aureus, and Cipro. Resistant PA respectively was used. The aliquots were incubated at 37° C. different periods starting from 0 minutes incubation till 60 minutes with a time step of 5 minutes.
(§7) Resistant PA respectively was used. The aliquots were incubated at 37° C. different periods starting from 0 minutes incubation until 60 minutes with a time step of 5 minutes.
(§8) MRSA and PA respectively.

Pseudomonas aeruginosa = assay: as above; format: cell-based; conditions: 10^5 cfu/mL PA, antibiotic concentrations, 0-60 min
Protocol: as §6, §7, §8

Compound: Colistin
- MA-MIC/SVM-MIC/MIC Category (A. baumannii [1]): R/R/R
- QolorAST MIC Manual (MA-MIC) (A. baumannii [1]): 8 µg/mL
- QolorAST MIC SVM (SVM-MIC) (A. baumannii [1]): 8 µg/mL
- MIC (A. baumannii [1]; both manually and through SVM): 8 µg/mL
- MA-MIC/SVM-MIC/MIC Category (E. cloacae [2]): R/R/R
- QolorAST MIC Manual (MA-MIC) (E. cloacae [2]): 4 µg/mL
- QolorAST MIC SVM (SVM-MIC) (E. cloacae [2]): 4 µg/mL
- MA-MIC/SVM-MIC/MIC Category (S. pneumonia [3]): R/R/R*
- QolorAST MIC Manual (MA-MIC) (S. pneumonia [3]): > 128 µg/mL
- QolorAST MIC SVM (SVM-MIC) (S. pneumonia [3]): > 128 µg/mL
- MA-MIC/SVM-MIC/MIC Category (K. pneumonia [4]): R/R/R
- QolorAST MIC Manual (MA-MIC) (K. pneumonia [4]): 8 µg/mL
- QolorAST MIC SVM (SVM-MIC) (K. pneumonia [4]): 8 µg/mL
- MA-MIC/SVM-MIC/MIC Category (S. agalactiae [5]): R/R/R*
- QolorAST MIC Manual (MA-MIC) (S. agalactiae [5]): 128 µg/mL
- QolorAST MIC SVM (SVM-MIC) (S. agalactiae [5]): > 128 µg/mL
- resistance or susceptibility (S. agalactiae [5]): resistant
- Broth Microdilution MIC (MIC) (A. baumannii [6]): 8
- Broth Microdilution MIC (MIC) (E. cloacae [7]): 4
- Broth Microdilution MIC (MIC) (S. pneumonia [8]): >128
- Broth Microdilution MIC (MIC) (K. pneumonia [9]): 8
- Broth Microdilution MIC (MIC) (S. agalactiae [10]): 128

Compound: O=C(O)c1cn(C2CC2)c2cc(N3CCNCC3)c(F)cc2c1=O [Ciprofloxacin]
- QolorAST MIC Manual (MA-MIC) (MRSA [11]): 1 µg/mL
- QolorAST MIC SVM (SVM-MIC) (MRSA [11]): 1 µg/mL
- resistance or susceptibility (MRSA [11]): susceptibility
- QolorAST colour readout over incubation (MRSA [12]): consistent blue color
- QolorAST colour readout over incubation (Pseudomonas aeruginosa): consistent color change from blue to green
